Each structure is given as a SMILES string. Where a SMILES comes first, the peptide text is derived from it. [ ]: non-standard residue; d: D form. The star is where a group is joined. Biotin = O=C1N[C@H]2[C@H](CS[C@H]2CCCCC(=O)*)N1

Assay [1] deals with CD44 and α4 integrin in membrane extracts. The assay is described as follows: Pull-down of membrane extract with biotin-conjugated peptide on NeutrAvidin beads, western blot / LC-MS/MS. It counts as binding. Conditions: H929 cells, 30 μg membrane extract, western blot pan-CD44 antibody. As for the experimental part:
FIG. 39. […] Thirty micrograms of membrane extract was incubated with either biotin or biotin-HYD1 bound NeutrAvidin beads. The first lane is 30 μg of membrane extract only. CD44 was detected by western blot analysis using a pan-CD44 antibody.
FIGS. 40A-40B. […] Biotin-HYD1 or biotin was immobilized to NeutraAvidin beads prior to incubation with 150 μg of membrane extract. The blot was initially probed for α4 integrin and subsequently stripped and re-probed with CD44 antibody.
FIG. 65. […] Total cell membranes were isolated from U937 or HL-60 cells. Membrane lysate (150 μg) was incubated with 500 μg of biotin or biotin-MTI-101 bound to NeutrAvidin beads. […]
The inventors used biotin-HYD1 as bait to pulldown binding complexes contained within membrane extracts of H929 MM cells. […] The inventors next determined whether α4 integrin could be detected by western blot analysis. […] To determine whether […] was indeed a direct binding partner of […] the inventors used recombinant CD44 and an ELISA as a readout of binding. […]
We performed a total membrane binding assay with biotin conjugated HYD1 and NeutrAvidin beads on NCI-H929 and U266 MM cells. Samples were then loaded on an SDS-PAGE gel and analyzed by LC-MS/MS. The adhesion receptor CD44 was determined to be among the adhesion receptors that had the most peptide match hits and was confirmed as a valid hit via Western Blot analysis. […]
For orientation: A western blot detects proteins with antibodies after separation by electrophoresis.

The subject of assay [2] is H929 myeloma cells. It counts as cell-based, human. Conditions: H929 cells. As for the experimental part: H929 cells were treated for 24 hours with varying concentrations of peptide. Cell death was measured by Topro-3 staining and FACS analysis. The IC50 values were obtained from linear regression analysis and an average value was obtained from 3 independent experiments.
Table 4 legend: Structure activity relationship in H929 myeloma cells of cyclic INTEGRIN INTERACTION INHIBITORS derivatives. The minimal bioactive core sequence of INTEGRIN INTERACTION INHIBITORS WSVVM (SEQ ID NO:33) was cyclized using 2 novel reduced amide bond beta turn promoters and KLKLK (SEQ ID NO:34) as the non-recognition sequence. H929 cells were treated with varying concentrations of the indicated peptide for 24 h. Cell viability was determined using Topro-3 staining and FACS analysis after drug treatment. IC50 values were generated from linear regressions generated from the dose response curves (n=mean of 3 independent experiments).
A colony forming assay was used to compare induced cell death in H929 multiple myeloma cells. Cells were treated with integrin interaction inhibitors, shown in FIG. 5 and Table 4, and cell death was measured following 24 hour peptide treatment by TOPRO-3 staining and FACS analysis.

Assay [3] deals with T1, full length recombinant human CD44 (Homo sapiens, UniProt P16070).
T1 construct: purchased Abnova
The assay is described as follows: ELISA based binding assay, biotin-HYD1 on NeutrAvidin coated wells. Conditions: biotin as control. The source says: FIG. 41. […] A primary CD44 antibody and HRP conjugated secondary antibody and chemiluminescence detection was used to quantify rCD44 binding to immobilized biotin-HYD1.
FIG. 51. ELISA based binding assay confirms that biotin-HYD1 binds to full length recombinant human CD44 in a concentration dependent manner. Biotin was bound to NeutrAvidin coated wells to control for non-specific binding.
The inventors used biotin-HYD1 as bait to pulldown binding complexes contained within membrane extracts of H929 MM cells. The pull down assay was directly coupled with an unbiased Mass-Spec analysis to identify HYD1 binding partners. […] NeutrAvidin beads were used to reduce non-specific binding. […] The inventors next determined whether α4 integrin could be detected by western blot analysis. […] To determine whether […] was indeed a direct binding partner of […] the inventors used recombinant CD44 and an ELISA as a readout of binding. […]
The inventors performed a total membrane binding assay with biotin conjugated HYD1 and NeutrAvidin beads on NCI-H929 and U266 MM cells. Samples were then loaded on an SDS-PAGE gel, trypsin digested, and analyzed by Liquid Chromatography-Mass Spectrometry/Mass Spectrometry (LC-MS/MS). […] For more quantitative binding affinity analysis we produced the human globular ectodomain of CD44 comprising of amino acids 20-178. […]
On the technique in general: In an ELISA, binding on a coated surface is turned into a signal by an enzyme label.

T1 sequence (P16070 21-699 isoform P16070-4 limits assumed): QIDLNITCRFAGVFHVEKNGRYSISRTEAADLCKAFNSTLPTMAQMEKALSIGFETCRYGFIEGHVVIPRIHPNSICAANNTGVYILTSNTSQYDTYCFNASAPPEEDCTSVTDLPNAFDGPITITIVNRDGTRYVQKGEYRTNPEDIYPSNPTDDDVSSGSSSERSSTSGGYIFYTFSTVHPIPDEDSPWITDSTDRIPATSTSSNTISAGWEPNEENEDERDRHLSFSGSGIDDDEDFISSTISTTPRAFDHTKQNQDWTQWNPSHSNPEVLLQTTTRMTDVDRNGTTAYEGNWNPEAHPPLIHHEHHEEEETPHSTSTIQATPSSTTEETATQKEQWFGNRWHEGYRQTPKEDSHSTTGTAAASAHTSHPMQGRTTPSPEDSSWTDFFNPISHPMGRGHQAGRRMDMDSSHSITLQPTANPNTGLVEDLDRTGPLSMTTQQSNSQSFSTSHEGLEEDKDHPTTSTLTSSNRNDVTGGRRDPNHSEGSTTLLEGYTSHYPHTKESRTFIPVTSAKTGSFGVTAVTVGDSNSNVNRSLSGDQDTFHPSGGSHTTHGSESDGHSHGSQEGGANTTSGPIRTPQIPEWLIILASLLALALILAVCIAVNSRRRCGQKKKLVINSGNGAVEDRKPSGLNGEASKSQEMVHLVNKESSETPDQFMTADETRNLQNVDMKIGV

Take `CC[C@@H](C)[C@@H](NC(=O)[C@@H](CCCCN)NC(=O)CCCC[C@@H]1SC[C@@H]2NC(=O)N[C@@H]21)C(=O)N[C@H](CCCCN)C(=O)N[C@H](CCSC)C(=O)N[C@@H](C(=O)N[C@@H](C(=O)N[C@H](CO)C(=O)N[C@H](Cc1c[nH]c2ccccc12)C(=O)N[C@H](CCCCN)C(=O)NCC(=O)O)[C@H](C)CC)C(C)C` [biotin-HYD1] (Biotin-[dK][dI][dK][dM][dV][dI][dS][dW][dK]G-OH; N-terminus and C-terminus assumed): in assay [1], the “pull-down of binding partners from H929 membrane extract” value is “interacts with CD44 in H929 cells”. The “IC50 of biotinylated peptide relative to HYD1” value in assay [2] is “slightly decreased”. Moreover, the “binding to recombinant CD44 in ELISA” value was “binds recombinant CD44 in a direct ELISA” in assay [3] and “CD44 bound to biotin conjugated HYD1 in a concentration dependent manner” in assay [3] (listed as biotin conjugated HYD1).
